In patent US20110112158A1, “BENZISOXAZOLE ANALOGS AS GLYCOGEN SYNTHASE ACTIVATORS” (priority 2009, published 2011):

Tested on: glycogen synthase
Assay: Glycogen Synthase (GS) Assay
Format: biochemical
Conditions: for EC50: compound concentration needed to give 50% maximum activation; for GS SC200: compound concentration needed to stimulate 200% of the enzyme activity
Method: Twelve μl per well of substrate solution containing glycogen (4.32 mg/ml), 2.67 mM UDP-glucose, 21.6 mM phospho(enol)pyruvate and 2.7 mM NADH in 30 mM glycylglycine, pH 7.3 buffer was added into a polystyrene 384-well assay plate (BD Biosciences).
Compound solutions (8 μl/well) at various concentrations (0-300 μM) were added to the assay plate (columns 5-24). Compound solution contains 30 mM glycylglycine, pH 7.3, 40 mM KCl, 20 mM MgCl2, 9.2% DMSO, with (columns 15-24) or without (columns 5-14) 20 mM glucose 6-phosphate.
Enzyme solution (12 μl/well) containing glycogen synthase (16.88 μg/ml), pyruvate kinase (0.27 mg/ml), lactate dehydrogenase (0.27 mg/ml) in 50 mM Tris-HCl, pH 8.0, 27 mM DTT and bovine serum albumin (BSA, 0.2 mg/ml) was added to the assay plate (columns 3-24). As a blank control, enzyme solution without glycogen synthase was added into the top half wells of columns 1-2. To the bottom half wells of columns 1-2 were added a known activator, glucose 6-phosphate (at final concentration 5 mM) in addition to the enzyme solution. The reaction mixture was incubated at room temperature. The assay plate was then read for absorbance at 340 nm on an Envision reader every 3 minutes up to a total of 15 minutes.
The enzyme activity (with or without compound) was calculated by the reaction rate and represented by the optical density change (μOD) per minute. Percent stimulation of glycogen synthase activity by a compound at various concentrations was calculated by the following formula: […]
wherein Rs is the reaction rate of the enzyme in the presence of compound and Rt is the reaction rate of the enzyme in the absence of compound.
SC200 is defined as the compound concentration that is needed to stimulate 200% of the enzyme activity. EC50 is defined as the compound concentration that is needed to give 50% maximum activation.

| SMILES | EC50 | GS SC200 |
| --- | --- | --- |
| COc1cc(F)c(F)cc1-c1ccc(OCc2cccc3c(O)noc23)cc1 [Example 11, 7-(4′,5′-Difluoro-2′-methoxy-biphenyl-4-yloxymethyl)-benzo[d] isoxazol-3-ol] | 158 nM | 0.014 µM |
| Cc1cc(F)c(F)cc1-c1ccc(OCc2cccc3c(O)noc23)cc1 [Example 13, 7-(4′,5′-Difluoro-2′-methyl-biphenyl-4-yloxymethyl)-benzo[d]isoxazol-3-ol] | 792 nM | 0.523 µM |
| Oc1noc2c(COc3ccc(-c4cc(F)c(F)cc4F)cc3)cccc12 [Example 10, 7-(2′,4′,5′-Trifluoro-biphenyl-4-yl-oxymethyl)-benzo[d]isoxazol-3-ol] | 836 nM | 0.148 µM |
| COc1cc(F)c(F)cc1-c1ccc(OCc2ccc3onc(N(CC(=O)O)CC4CC4)c3c2)cc1 [Example 17] | 1160 nM | 0.438 µM |
| COCCCN(CC(=O)O)c1noc2ccc(COc3ccc(-c4cc(F)c(F)cc4OC)cc3)cc12 [Example 15, [[5-(4′,5′-Difluoro-2′-methoxy-biphenyl-4-yloxymethyl)-benzo[d]isoxazol-3-yl]-(3-methoxy-propyl)-amino]-acetic acid] | 514 nM | 0.169 µM |
| COc1cc(F)c(F)cc1-c1ccc(OCc2ccc3onc(N(CC(=O)O)CC4CCOCC4)c3c2)cc1 [Example 18, [[5-(4′,5′-Difluoro-2′-methoxy-biphenyl-4-yloxymethyl)-benzo[d]isoxazol-3-yl]-(tetrahydro-pyran-4-ylmethyl)-amino]-acetic acid] | 713 nM | 0.249 µM |
| Oc1noc2ccc(COc3ccc(-c4cc(F)c(F)cc4F)cc3)cc12 [Example 20, 5-(2′,4′,5′-Trifluoro-biphenyl-4-yloxymethyl)-benzo[d]isoxazol-3-ol] | 422 nM | 0.247 µM |
| Oc1noc2c(COc3ccc(-c4cc(F)c(F)cc4Cl)cc3)cccc12 [Example 12, 7-(2′-Chloro-4′,5′-difluoro-biphenyl-4-yloxymethyl)-benzo[d]isoxazol-3-ol] | 702 nM | 0.406 µM |
| COc1cc(F)c(F)cc1-c1ccc(OCc2cccc3c(N(C)CC(=O)O)noc23)cc1 [Example 19, {[7-(4′,5′-Difluoro-2′-methoxy-biphenyl-4-yloxymethyl)-benzo[d]isoxazol-3-yl]-methyl-amino}-acetic acid] | 4220 nM | 1.57 µM |

The next lines start with results.

| EC50 | SMILES | GS SC200 |
| --- | --- | --- |
| 172 nM | COc1cc(F)c(F)cc1-c1ccc(OCc2ccc3onc(O)c3c2)cc1 [Example 4, 5-(4′,5′-Difluoro-2′-methoxy-biphenyl-4-yloxymethyl)-benzo[d]isoxazol-3-ol] | 0.032 µM |
| 1970 nM | CNc1noc2ccc(COc3ccc(-c4cc(F)c(F)cc4OC)cc3)cc12 [Example 2] | 0.514 µM |
| 662 nM | COc1cc(F)c(F)cc1-c1ccc(OCc2ccc3onc(OC(C)C(=O)O)c3c2)cc1 (stereo not shown) [Example 7, 2-[5-(4′,5′-Difluoro-2′-methoxy-biphenyl-4-yloxymethyl)-benzo[d]isoxazol-3-yloxy]-propionic acid] | 0.218 µM |
| 365 nM | COCCN(CC(=O)O)c1noc2ccc(COc3ccc(-c4cc(F)c(F)cc4OC)cc3)cc12 [Example 14, [[5-(4′,5′-Difluoro-2′-methoxy-biphenyl-4-yloxymethyl)-benzo[d]isoxazol-3-yl]-(2-methoxy-ethyl)-amino]-acetic acid] | 0.098 µM |
| 1350 nM | COc1cc(F)c(F)cc1-c1ccc(OCc2ccc3onc(OCC(=O)O)c3c2)cc1 [Example 5, [5-(4′,5′-Difluoro-2′-methoxy-biphenyl-4-yloxymethyl)-benzo[d]isoxazol-3-yloxy]-acetic acid] | 0.492 µM |
| 1760 nM | COc1cc(F)c(F)cc1-c1ccc(OCc2ccc3onc(OC(C(=O)O)c4ccccc4)c3c2)cc1 (stereo not shown) [Example 8, [5-(4′,5′-Difluoro-2′-methoxy-biphenyl-4-yloxymethyl)-benzo[d]isoxazol-3-yloxy]-phenyl-acetic acid] | 0.723 µM |
| 1700 nM | COc1cc(F)c(F)cc1-c1ccc(OCc2ccc3onc(OCCC(=O)O)c3c2)cc1 [Example 9, 3-[5-(4′,5′-Difluoro-2′-methoxy-biphenyl-4-yloxymethyl)-benzo[d]isoxazol-3-yloxy]-propionic acid] | 0.61 µM |
| 302 nM | COc1cc(F)c(F)cc1-c1ccc(OCc2ccc3onc(N(C)CC(=O)O)c3c2)cc1 [Example 3] | 0.024 µM |
| 631 nM | CCN(CC(=O)O)c1noc2ccc(COc3ccc(-c4cc(F)c(F)cc4OC)cc3)cc12 [Example 16, {[5-(4′,5′-Difluoro-2′-methoxy-biphenyl-4-yloxymethyl)-benzo[d]isoxazol-3-yl]-ethyl-amino}-acetic acid] | 2.18 µM |
| 1490 nM | COc1cc(F)c(F)cc1-c1ccc(OCc2ccc3onc(N)c3c2)cc1 [Example 1, 5-(4′,5′-Difluoro-2′-methoxy-biphenyl-4-yloxymethyl)-benzo[d]isoxazol-3-ylamine] | 0.688 µM |
| 777 nM | COc1cc(F)c(F)cc1-c1ccc(OCc2ccc3onc(OC(C)(C)C(=O)O)c3c2)cc1 [Example 6, 2-[5-(4′,5′-Difluoro-2′-methoxy-biphenyl-4-yloxymethyl)-benzo[d]isoxazol-3-yloxy]-2-methyl-propionic acid] | 0.348 µM |
